The text below walks through data of US20050288273A1, “Antibacterial agents” (priority 2003, published 2005).

One data set deals with S pyogenes C203. As to the kind of experiment: Antibacterial assay (MIC), standard microtitration, Gram positive. In kind it is cell-based. The following applies: Gram positive bacteria; for MIC: read-out: Minimum Inhibitory Concentrations S pyogenes C203. The text has this:
(§1) Test A—Antibacterial Assays

The test system of the next data set is S. aureus UC-76. Described as above. It counts as cell-based. Particulars: Gram positive bacteria; for MIC: Staphylococcus aureus, UC76, read-out: Minimum Inhibitory Concentrations S. aureus UC-76.
Description: as §1

The next data set concerns E. faecalis MGH-2. The data set is described as above. It counts as cell-based. The following applies: Gram positive bacteria; for MIC: Enterococcus faecalis, MGH2, read-out: Minimum Inhibitory Concentrations E. faecalis MGH-2.
Description: as §1

The next data set deals with E. faeciaum EF4-3525. As to the kind of experiment: Cross resistance antibacterial assay (MIC), strain 4. The following applies: read-out: Minimum Inhibitory Concentrations in Strain 4.
For the next data set, the system named is E. faeciaum EF4-3836. As to the kind of experiment: Cross resistance antibacterial assay (MIC), strain 5. Particulars: read-out: Minimum Inhibitory Concentrations in Strain 5.
For another data set, the system named is S. aureus SA-3528. As to the kind of experiment: Cross resistance antibacterial assay (MIC), strain 7. Particulars: Staphylococcus aureus, SA3528; S. aureus SA-3528, multiple drug resistant (MLS); read-out: Minimum Inhibitory Concentrations in Strain 7. It counts as cell-based. The text has this:
(§2) Test C—Cross Resistance Antibacterial Assay

The subject of a further data set is E. faecalis EF-3838. As to the kind of experiment: Cross resistance antibacterial assay (MIC), strain 3. In kind it is cell-based. Particulars: Enterococcus faecalis, EF3838; E. faecalis EF-3838, multiple drug resistant (vancomicin, erythromycin, gentamicin); read-out: Minimum Inhibitory Concentrations in Strain 3.
Description: as §2

A further data set has as its system S. aureus SA-3839. As to the kind of experiment: Cross resistance antibacterial assay (MIC), strain 8. The following applies: Staphylococcus aureus, SA3839; S. aureus SA-3839, multiple drug resistant (linezolid and methicillin); read-out: Minimum Inhibitory Concentrations in Strain 8. In kind it is cell-based.
Description: as §2

In the next data set the test system is E. faecalis EF-13524. As to the kind of experiment: Cross resistance antibacterial assay (MIC), strain 2. It counts as cell-based. The following applies: Enterococcus faecalis, EF13524; E. faecalis EF-13524, vancomicin resistant strain; read-out: Minimum Inhibitory Concentrations in Strain 2.
Description: as §2

In another data set the test system is M. catarrhalis BC3534. As to the kind of experiment: Antibacterial assay (MIC), standard microtitration, Gram negative. Particulars: Gram negative bacteria; for MIC: Moraxella catarrhalis, BC3534, read-out: Minimum Inhibitory Concentrations M. catarrhalis BC3534. In kind it is cell-based.
Description: as §1

Another data set has as its system H. influenzae HI3542. The data set is described as above. It counts as cell-based. The following applies: Gram negative bacteria; for MIC: Haemophilus influenzae, HI3542, read-out: Minimum Inhibitory Concentrations H. influenzae HI3542.
Description: as §1

A further data set deals with E. coli Tol C. The description is as above. In kind it is cell-based. Particulars: for MIC: Escherichia coli, read-out: Minimum Inhibitory Concentrations E. coli Tol C.
Description: as §1

A further data set deals with S. pyogenes C-203. As to the kind of experiment: In vivo activity (mouse), median protective dose in lethal systemic infection. The following applies: mice. On the procedure:
Test B—In Vivo Activity (Mouse)
The in vivo activity was obtained when the compounds were tested according to the procedure of Miller, et al. (Proc. Soc. Exp. Biol. Med., 1944; 57:261). The median protective dose (PD50) was determined in mice given lethal systemic infections, as depicted in Table 4.

The test system of another data set is S. aureus SA-2017. As to the kind of experiment: Cross resistance antibacterial assay (MIC), strain 6. It counts as cell-based. Particulars: Staphylococcus aureus, SA2017; S. aureus SA-2017, multiple drug resistant (methicillin, ciprofloxacin); read-out: Minimum Inhibitory Concentrations in Strain 6.
Description: as §2

The next data set has as its system S. pneumoniae SP-3561. As to the kind of experiment: Cross resistance antibacterial assay (MIC), strain 11. The following applies: Streptococcus pneumoniae, SP3561; S. pneumoniae SP-3561, multiple drug resistant (penicillin, macrolide-R, tetracycline etc.); read-out: Minimum Inhibitory Concentrations in Strain 11. In kind it is cell-based.
Description: as §2

The subject of the next data set is S. pyogenes SP1-3541. As to the kind of experiment: Cross resistance antibacterial assay (MIC), strain 12. It counts as cell-based. Particulars: Streptococcus pyogenes, SP13541; S. pyogenes SP1-3541, multiple drug resistant (MLS); read-out: Minimum Inhibitory Concentrations in Strain 12.
Description: as §2

In another data set the test system is H. influenziae Hi-3113. As to the kind of experiment: Cross resistance antibacterial assay (MIC), strain 13. Particulars: H. influenziae Hi-3113, B-lactamase; read-out: Minimum Inhibitory Concentrations in Strain 13. It counts as cell-based.
Description: as §2
13. H. influenziae Hi-3113: B-lactamase

The test system of a further data set is S. pneumoniae SP-3536. As to the kind of experiment: Cross resistance antibacterial assay (MIC), strain 10. In kind it is cell-based. The following applies: Streptococcus pneumoniae, SP3536; S. pneumoniae SP-3536, multiple drug resistant (B-lactamase and macrolide-R); read-out: Minimum Inhibitory Concentrations in Strain 10.
Description: as §2

The subject of a further data set is S. aureus SA-3840. As to the kind of experiment: Cross resistance antibacterial assay (MIC), strain 9. Particulars: Staphylococcus aureus, SA3840; S. aureus SA-3840, multiple drug resistant (linezolid and methicillin); read-out: Minimum Inhibitory Concentrations in Strain 9. In kind it is cell-based.
Description: as §2

The structures appear in SMILES notation. In brackets after ≈: the same amount, converted by molar mass.

Description for E. faeciaum EF4-3525: (§3) The compounds of the present invention were tested against an assortment of drug resistant organisms described below using standard microtitration techniques (Cohen, et. al., Antimicrob. Agents Chemother., 1985; 28:766; Heifetz, et. al., Antimicrob. Agents Chemother, 1974; 6:124). […] E. faeciaum EF4-3525: Vancomicin resitant strain. • 5. E. faeciaum EF4-3836: Multiple drug resitant strain (lineozolid, AZD2563-R, vancomicin, ampicillin, macrolide-R, quinolone-R, trimeothprim/sulfamethoxazole). • 6.
Description for E. faeciaum EF4-3836: as §3

As to `CC(=O)NC[C@H]1CN(c2ccc3c(c2)CCCc2cn[nH]c2-3)C(=O)O1` [Example 3, (S)-N-[2-Oxo-3-(1,4,5,6-tetrahydro-1,2-diaza-benzo[e]azulen-8-yl)oxazolidin-5-ylmethyl]acetamide], the MIC in the data set on S pyogenes C203 came to 0.125 µg/mL (≈ 0.367 µM); in the data set on S. aureus UC-76, 0.5 µg/mL (≈ 1.47 µM); in the data set on E. faecalis MGH-2, 0.25 µg/mL (≈ 0.734 µM); in the data set on E. faeciaum EF4-3525 it was 0.5 µg/mL (≈ 1.47 µM); in the data set with E. faeciaum EF4-3836, 1 µg/mL (≈ 2.94 µM); with S. aureus SA-3528, 8 µg/mL (≈ 23.5 µM). Besides, the MIC was 0.5 µg/mL (≈ 1.47 µM) with E. faecalis EF-3838; 16 µg/mL (≈ 47 µM) with S. aureus SA-3839; 0.25 µg/mL (≈ 0.734 µM) in the data set with E. faecalis EF-13524; 2 µg/mL (≈ 5.88 µM) with M. catarrhalis BC3534; 2 µg/mL (≈ 5.88 µM) in the data set on H. influenzae HI3542; greater than 64 µg/mL in the data set with E. coli Tol C. Besides, in the data set with S. aureus SA-2017, the MIC turned out to be 1 µg/mL (≈ 2.94 µM). The “PD50 (median protective dose)” value amounted to 6.4 mg/kg in the data set with S. pyogenes C-203 (S. pyogenes C-203, oral) and 2.1 mg/kg in the data set with S. pyogenes C-203 (S. pyogenes C-203, subcutaneous).
As to `CC(C)(C)OC(=O)NC[C@H]1CN(c2ccc3c(c2)CCCc2cn[nH]c2-3)C(=O)O1` [Example 56, (S)-[2-Oxo-3-(1,4,5,6-tetrahydro-1,2-diaza-benzo[e]azulen-8-yl)-oxazolidin-5-ylmethyl]-carbamic acid tert-butyl ester], the melting point (in general, the temperature, or range, at which the solid turns liquid) fell in the range of 85 to 100 °C. The MIC in the data set on S pyogenes C203 came out at 4 µg/mL (≈ 10 µM). Besides, the MIC with S. aureus UC-76 stood at 1 µg/mL (≈ 2.51 µM). Also, the MIC in the data set with E. faecalis MGH-2 came to 4 µg/mL (≈ 10 µM). In the data set with M. catarrhalis BC3534, the MIC was found to be 16 µg/mL (≈ 40.2 µM). The MIC in the data set with H. influenzae HI3542 was greater than 64 µg/mL. Also, in the data set with E. coli Tol C, the MIC was greater than 64 µg/mL.
Turning to `CC(=O)NC[C@H]1CN(c2ccc3c(c2)CCCc2cnoc2-3)C(=O)O1` [Example 3A, (S)-N-[3-(5,6-dihydro-4H-1-oxa-2-aza-benzo[e]azulen-8-yl)-2-oxo-oxalidin-5-ylmethyl]acetamide], the MIC with S. pneumoniae SP-3561 is 0.25 µg/mL (≈ 0.732 µM); with S. pyogenes SP1-3541 it was 0.5 µg/mL (≈ 1.46 µM); with H. influenziae Hi-3113 it was 2 µg/mL (≈ 5.86 µM); with E. faeciaum EF4-3525 it was 0.5 µg/mL (≈ 1.46 µM); in the data set with E. faeciaum EF4-3836, 1 µg/mL (≈ 2.93 µM); with S. aureus SA-3528, 48 µg/mL (≈ 141 µM). Further, the MIC in the data set on E. faecalis EF-3838 came out at 1 µg/mL (≈ 2.93 µM); in the data set on S. aureus SA-3839 it was 4 µg/mL (≈ 11.7 µM); in the data set on E. faecalis EF-13524 it was 0.25 µg/mL (≈ 0.732 µM); with S. pneumoniae SP-3536 it was 4 µg/mL (≈ 11.7 µM); in the data set with S. aureus SA-3840, 4 µg/mL (≈ 11.7 µM); in the data set with S. aureus SA-2017 it was 0.5 µg/mL (≈ 1.46 µM).
In the case of `CC(=O)NC[C@H]1CN(c2ccc3c(c2)-c2[nH]ncc2CCC3)C(=O)O1` [Example 1, (S)-N-[2-Oxo-3-(1,4,5,6-tetrahydro-1,2-diaza-benzo[e]azulen-9-yl)oxalidin-5-ylmethyl]acetamide], in the data set with S pyogenes C203, the “Minimum Inhibitory Concentrations S pyogenes C203” value was >64 . . . μg/mL. Also, the “Minimum Inhibitory Concentrations S. aureus UC-76” value in the data set with S. aureus UC-76 was greater than 64 µg/mL. Besides, in the data set on E. faecalis MGH-2, the “Minimum Inhibitory Concentrations E. faecalis MGH-2” value was greater than 64 µg/mL. The “Minimum Inhibitory Concentrations M. catarrhalis BC3534” value in the data set on M. catarrhalis BC3534 was greater than 64 µg/mL. Moreover, the “Minimum Inhibitory Concentrations H. influenzae HI3542” value in the data set with H. influenzae HI3542 was greater than 64 µg/mL. For the same compound, the “Minimum Inhibitory Concentrations E. coli Tol C” value in the data set on E. coli Tol C (Gram negative bacteria) was greater than 64 µg/mL.
In the case of `CC(=O)NC[C@H]1CN(c2ccc3c(c2)CCCc2c(C(F)(F)F)n[nH]c2-3)C(=O)O1` [Example 97, (S)-N-[2-Oxo-3-(3-trifluoromethyl-1,4,5,6-tetrahydro-1,2-diaza-benzo[e]azulen-8-yl)-oxazolidin-5-ylmethyl]-acetamide], the MIC with S pyogenes C203 is 0.5 µg/mL (≈ 1.22 µM); in the data set with S. aureus UC-76, 1 µg/mL (≈ 2.45 µM); in the data set with E. faecalis MGH-2, 1 µg/mL (≈ 2.45 µM); in the data set with M. catarrhalis BC3534 it was 2 µg/mL (≈ 4.9 µM); in the data set on H. influenzae HI3542, greater than 4 µg/mL; with E. coli Tol C, greater than 64 µg/mL.
Turning to `CC(=O)NC[C@H]1CN(c2ccc3c(c2)CCCc2c-3nn(CCO)c2-c2ccncc2)C(=O)O1` [Example 209, (S)-N-{3-[2-(2-Hydroxy-ethyl)-3-pyridin-4-yl-2,4,5,6-tetrahydro-1,2-diaza-benzo[e]azulen-8-yl]-2-oxo-oxazolidin-5-ylmethyl}-acetamide], the MIC in the data set with S pyogenes C203 is 4 µg/mL (≈ 8.67 µM); in the data set with S. aureus UC-76, 16 µg/mL (≈ 34.7 µM); in the data set with E. faecalis MGH-2, 8 µg/mL (≈ 17.3 µM); in the data set on M. catarrhalis BC3534, greater than 64 µg/mL; with H. influenzae HI3542, 32 µg/mL (≈ 69.3 µM); in the data set with E. coli Tol C, greater than 64 µg/mL.
`Br.CC(=O)NC[C@H]1CN(c2ccc3c(c2)CCCc2sc(N)nc2-3)C(=O)O1` [Example 186, (S)-N-[3-(2-Amino-5,6-dihydro-4H-3-thia-1-aza-benzo[e]azulen-8-yl)-2-oxo-oxazolidin-5-ylmethyl]-acetamide hydrobromic acid salt]: the MIC with S pyogenes C203 was 1 µg/mL; in the data set with S. aureus UC-76 it was 2 µg/mL; in the data set on E. faecalis MGH-2, 1 µg/mL; in the data set on M. catarrhalis BC3534, 8 µg/mL; with H. influenzae HI3542, 4 µg/mL; in the data set with E. coli Tol C it was greater than 64 µg/mL.
